Measured values from patent publication USRE48461E1, “Modulation of androgen receptor expression” (Ionis Pharmaceuticals, Inc., priority 2012, dated 2021).

Legend:
Format in all cases: cell-based, human
AR mRNA [1] = experiment: Time-course AR mRNA expression in C4-2B cells (8, 24, 48 hours); conditions: C4-2B cells
Procedure: C4-2B cells were plated at 1,000 cells per well in complete medium. […] After a treatment period of 8 hours, 24 hours, and 48 hours, AR expression was measured with primer probe set hAR-LTS00943.

TMPRSS2 mRNA [2] = experiment: Time-course TMPRSS2 expression in C4-2B cells
Procedure: C4-2B cells were plated at 1,000 cells per well in complete medium. […] ISIS 549148 was included as a negative control. […] After a treatment period of 8 hours, 24 hours, and 48 hours, AR expression was measured with primer probe set hAR-LTS00943. Results are presented in Tables 70-72 as percent expression of AR, relative to non-treated cells.
Expression analysis of prostate-specific antigen (PSA) and TMPRSS2 were also analyzed. Results are presented in Tables 73-75 as percent inhibition of PSA expression and Tables 76-78 as percent inhibition of TMPRSS2 expression, relative to non-treated cells.

AR mRNA [3] = experiment: AR RNA expression in C4-2 cells (complete, CSS+DHT medium); conditions: 48 hrs; for Percent expression of AR: C4-2 cells, CSS + DHT medium
Procedure: (§1) Cells were plated at 1,000 cells per well. […] After an incubation period of 48 hrs, RNA levels of AR, PSA and TMPRSS2 were measured.
(§2) Cells were plated at 2,000 cells per well and cultured in CSS media with 1 nM DHT. […] After an incubation period of 48 hrs, RNA levels of AR, PSA and TMPRSS2 were measured.

TMPRSS2 mRNA [4] = experiment: TMPRSS2 expression in C4-2 cells; conditions: 48 hrs; for Percent inhibition of TMPRSS2 expression: C4-2 cells, CSS + DHT medium
Procedure: as §1, §2

AR mRNA [5] = experiment: AR RNA expression in C4-2B cells (complete, CSS+DHT medium; Example 30); conditions: 48 hrs
Procedure: (§3) Cells were plated at 1,000 cells per well. […] ISIS 549148 was included as a negative control. […] After an incubation period of 48 hrs, RNA levels of AR, PSA and TMPRSS2 were measured.
(§4) Cells were plated at 2,000 cells per well and cultured in CSS media with 1 nM DHT. […] ISIS 549148 was included as a negative control. […] After an incubation period of 48 hrs, RNA levels of AR, PSA and TMPRSS2 were measured. In the absence of DHT, AR expression in C4-2 cells was 188%, PSA expression was 43% and TMPRSS2 expression was 27% compared to the untreated control.

PSA mRNA = experiment: PSA expression in C4-2B cells (Example 30); conditions: 48 hrs
Procedure: as §3, §4

C4-2B cells = experiment: C4-2B cell proliferation (complete or CSS+DHT medium; Example 30); conditions: C4-2B cells, 5 days
Procedure: After a treatment period of 5 days in complete medium or CSS+1 nM DHT medium, the proliferative capacity of the cancer cells was measured with using CellTiter 96® AQueous One or CellTiter-Glo® Solution Cell Proliferation kit (Promega), following the manufacturer's instructions.

22RV1 cells = experiment: 22RV1 apoptosis (Caspase-glo 3/7); conditions: 22RV1 cells, 72 hours
Procedure: After a treatment period of 72 hours in complete medium or CSS+DHT medium, apoptosis of the cancer cells was measured with Caspase-glo 3/7 assay kit (Promega). Results are presented in Tables 131 and 132 as percent apoptosis of the cells, relative to non-treated cells.

Sequence: GGCTACTACGCCGTCA (3-10-3 (S)-cEt gapmer, chemistry not fully specified) [ISIS 549148, reference compound]
- Percent expression of AR compared to the control group in 8 hours (AR mRNA [1]; 0.04 μM): 116%
- Percent expression of AR compared to the control group in 24 hours (AR mRNA [1]; 0.04 μM): 87%
- Percent expression of AR compared to the control group in 48 hours (AR mRNA [1]; 0.04 μM): 98%
- Percent expression of AR compared to the control group in 8 hours (AR mRNA [1]; 0.2 μM): 105%
- Percent expression of AR compared to the control group in 24 hours (AR mRNA [1]; 0.2 μM): 85%
- Percent expression of AR compared to the control group in 48 hours (AR mRNA [1]; 0.2 μM): 90%
- Percent expression of AR compared to the control group in 24 hours (AR mRNA [1]; 1 μM): 87%
- Percent expression of AR compared to the control group in 48 hours (AR mRNA [1]; 1 μM): 87%
- Percent expression of AR compared to the control group in 8 hours (AR mRNA [1]; 5.0 μM): 110%
- Percent expression of AR compared to the control group in 24 hours (AR mRNA [1]; 5.0 μM): 107%
- Percent expression of AR compared to the control group in 48 hours (AR mRNA [1]; 5.0 μM): 99%
- Percent inhibition of TMPRSS2 expression compared to the control group in 8 hours (TMPRSS2 mRNA [2]; 0.04 μM): 5%
- Percent inhibition of TMPRSS2 expression compared to the control group in 24 hours (TMPRSS2 mRNA [2]; 0.04 μM): 29%
- Percent inhibition of TMPRSS2 expression compared to the control group in 48 hours (TMPRSS2 mRNA [2]; 0.04 μM): 0%
- Percent inhibition of TMPRSS2 expression compared to the control group in 8 hours (TMPRSS2 mRNA [2]; 0.2 μM): 0%
- Percent inhibition of TMPRSS2 expression compared to the control group in 24 hours (TMPRSS2 mRNA [2]; 0.2 μM): 10%
- Percent inhibition of TMPRSS2 expression compared to the control group in 48 hours (TMPRSS2 mRNA [2]; 0.2 μM): 4%
- Percent inhibition of TMPRSS2 expression compared to the control group in 8 hours (TMPRSS2 mRNA [2]; 1 μM): 0%
- Percent inhibition of TMPRSS2 expression compared to the control group in 24 hours (TMPRSS2 mRNA [2]; 1 μM): 29%
- Percent inhibition of TMPRSS2 expression compared to the control group in 48 hours (TMPRSS2 mRNA [2]; 1 μM): 0%
- Percent inhibition of TMPRSS2 expression compared to the control group in 8 hours (TMPRSS2 mRNA [2]; 5.0 μM): 0%
- Percent inhibition of TMPRSS2 expression compared to the control group in 24 hours (TMPRSS2 mRNA [2]; 5.0 μM): 10%
- Percent inhibition of TMPRSS2 expression compared to the control group in 48 hours (TMPRSS2 mRNA [2]; 5.0 μM): 0%
- Percent expression of AR (AR mRNA [3]; 0.04 μM): 101%
- Percent expression of AR (AR mRNA [3]; 0.2 μM): 101%
- Percent expression of AR (AR mRNA [3]; 1 μM): 118%
- Percent expression of AR in C4-2 cells cultured in complete medium (AR mRNA [3]; 0.04 μM): 89%
- Percent expression of AR in C4-2 cells cultured in complete medium (AR mRNA [3]; 0.2 μM): 90%
- Percent expression of AR in C4-2 cells cultured in complete medium (AR mRNA [3]; 1 μM): 84%
- Percent expression of AR in C4-2 cells cultured in complete medium (AR mRNA [3]; 5.0 μM): 86%
- Percent inhibition of TMPRSS2 expression (TMPRSS2 mRNA [4]; 0.04 μM): 3%
- Percent inhibition of TMPRSS2 expression (TMPRSS2 mRNA [4]; 0.2 μM): 0%
- Percent inhibition of TMPRSS2 expression (TMPRSS2 mRNA [4]; 1 μM): 22%
- Percent inhibition of TMPRSS2 expression (TMPRSS2 mRNA [4]; 5.0 μM): 28%
- Percent inhibition of TMPRSS2 expression in C4-2 cells cultured in complete medium (TMPRSS2 mRNA [4]; 0.04 μM): 2%
- Percent inhibition of TMPRSS2 expression in C4-2 cells cultured in complete medium (TMPRSS2 mRNA [4]; 0.2 μM): 7%
- Percent inhibition of TMPRSS2 expression in C4-2 cells cultured in complete medium (TMPRSS2 mRNA [4]; 1 μM): 10%
- Percent inhibition of TMPRSS2 expression in C4-2 cells cultured in complete medium (TMPRSS2 mRNA [4]; 5.0 μM): 0%
- Percent expression of AR (AR mRNA [5]; CSS + DHT medium, 0.04 μM): 91%
- Percent expression of AR (AR mRNA [5]; CSS + DHT medium, 0.2 μM): 104%
- Percent expression of AR (AR mRNA [5]; CSS + DHT medium, 1 μM): 101%
- Percent expression of AR (AR mRNA [5]; CSS + DHT medium, 5.0 μM): 95%
- Percent expression of AR (AR mRNA [5]; complete medium, 0.04 μM): 101%
- Percent expression of AR (AR mRNA [5]; complete medium, 0.2 μM): 91%
- Percent expression of AR (AR mRNA [5]; complete medium, 1 μM): 88%
- Percent expression of AR (AR mRNA [5]; complete medium, 5.0 μM): 87%
- Percent inhibition of PSA expression (PSA mRNA; CSS + DHT medium, 0.04 μM): 0%
- Percent inhibition of PSA expression (PSA mRNA; CSS + DHT medium, 0.2 μM): 0%
- Percent inhibition of PSA expression (PSA mRNA; CSS + DHT medium, 1 μM): 0%
- Percent inhibition of PSA expression (PSA mRNA; CSS + DHT medium, 5.0 μM): 0%
- Percent inhibition of PSA expression (PSA mRNA; complete medium, 0.04 μM): 3%
- Percent inhibition of PSA expression (PSA mRNA; complete medium, 0.2 μM): 11%
- Percent inhibition of PSA expression (PSA mRNA; complete medium, 1 μM): 18%
- Percent inhibition of PSA expression (PSA mRNA; complete medium, 5.0 μM): 14%
- Proliferation (% untreated control) (C4-2B cells; CSS + DHT medium, 0.04 μM): 109 % untreated control
- Proliferation (% untreated control) (C4-2B cells; CSS + DHT medium, 0.2 μM): 131 % untreated control
- Proliferation (% untreated control) (C4-2B cells; CSS + DHT medium, 1 μM): 119 % untreated control
- Proliferation (% untreated control) (C4-2B cells; CSS + DHT medium, 5.0 μM): 114 % untreated control
- Proliferation (% untreated control) (C4-2B cells; complete medium, 0.04 μM): 119 % untreated control
- Proliferation (% untreated control) (C4-2B cells; complete medium, 0.2 μM): 97 % untreated control
- Proliferation (% untreated control) (C4-2B cells; complete medium, 1 μM): 103 % untreated control
- Proliferation (% untreated control) (C4-2B cells; complete medium, 5.0 μM): 98 % untreated control
- Apoptosis (% untreated control) (22RV1 cells; CSS + DHT medium, 1.34 nM): 113 % untreated control
- Apoptosis (% untreated control) (22RV1 cells; CSS + DHT medium, 4.0 nM): 94 % untreated control
- Apoptosis (% untreated control) (22RV1 cells; CSS + DHT medium, 13.4 nM): 102 % untreated control
- Apoptosis (% untreated control) (22RV1 cells; CSS + DHT medium, 40 nM): 108 % untreated control
- Apoptosis (% untreated control) (22RV1 cells; complete medium, 1.34 nM): 81 % untreated control
- Apoptosis (% untreated control) (22RV1 cells; complete medium, 4.0 nM): 76 % untreated control
- Apoptosis (% untreated control) (22RV1 cells; complete medium, 13.4 nM): 72 % untreated control
- Apoptosis (% untreated control) (22RV1 cells; complete medium, 40 nM): 123 % untreated control
